The term pIC50 denotes −log10 of the IC50, conventionally taken in molar units.

pIC50: −log10 of the molar value. Entries after “also recorded” stand apart in the source; their conditions may differ. Where two headings read alike, the source gives them in different places.

The subject of experiment [1] is marine enrichment cultures. Briefly: Inhibition of sulfide production (Cline assay) in marine enrichment cultures. It counts as cell-based. The conditions noted are these: for pIC50: read-out: IC50 Seawater Sulfide Production.
The subject of experiment [2] is nitrate reducing bacteria. The conditions noted are these: molybdate treated cell suspensions; cited from earlier work.
Experiment [3] deals with Desulfovibrio cell suspensions. The following applies: molybdate treated, after 60 minutes; cited from earlier work.
Experiment [4] has as its system marine enrichment cultures. Briefly: organism not typed. It counts as cell-based. The conditions noted are these: read-out: IC50 Seawater Growth.
[5] abbreviates: marine enrichment cultures, SI>2 classified as selective.

`N.NS(=O)(=O)O` [ammonium sulfamate]: the “selectivity and potency as inhibitor of sulfidogenesis versus growth, in words” value (“selectivity and potency as inhibitor” for short) in experiment [1] was “very weak and nonspecific inhibitors”.

Consider `[O-][Cl+2]([O-])O` [chlorate], for which the “selectivity and potency as inhibitor” value in experiment [1] is listed as “selective inhibitors of sulfidogenesis”.

As for `CS(C)(=O)=O` [dimethyl sulfone], in experiment [1] (setting [5]), the “selectivity and potency as inhibitor” value is “very weak and nonspecific inhibitors”.

Turning to `[O]=[Mo](=[O])([O-])[O-]` [molybdate], in experiment [2], the “intracellular ATP relative to controls” value is reported as roughly 80%. Moreover, the “intracellular ATP relative to controls” value in experiment [3] is roughly 10%. Further, in experiment [1], the “selectivity and potency as inhibitor” value is on record as “specific inhibitors of sulfide production”; the “selectivity index (SI = growth IC50/sulfide IC50)” value amounted to 100.

With `O=[N+]([O-])O` [nitrate], in experiment [1], the “Growth/Sulfide Ratio” value stood at 41.3; the “fold higher IC50 than MFP” value is roughly 8 fold; the “selectivity and potency as inhibitor” value is listed as “selective inhibitors”; the pIC50 is 2.20.

For `O=NO` [nitrite], in experiment [1], the “selectivity and potency as inhibitor” value was “selective inhibitors”; the “selectivity index (SI = growth IC50/sulfide IC50)” value is given as “≈ 2”.

Regarding `[O-][Cl+3]([O-])([O-])O` [perchlorate], in experiment [1], the “Growth/Sulfide Ratio” value turned out to be 11.19; the “selectivity and potency as inhibitor” value is listed as “selective inhibitors of sulfidogenesis”; the pIC50 was 2.49. The negative logarithm of the IC50 (pIC50) in experiment [4] is 1.44.

Regarding `[O-][I+3]([O-])([O-])O` [periodate], in experiment [1] (setting [5]), the “selectivity and potency as inhibitor” value is “nonspecific, but potent inhibitors of all growth”.

On to `O=[Se](=O)(O)O` [selenate], for which, in experiment [1], the “selectivity and potency as inhibitor” value was “very potent and selective inhibitors of sulfate reduction”.

On to `O=[Se](O)O` [selenite], for which the “selectivity and potency as inhibitor” value in experiment [1] was “very potent and selective inhibitors of sulfate reduction”.

For `O=S(=O)(O)O` [sulfate], the “selectivity and potency as inhibitor” value in experiment [1] is “only inhibited growth and sulfidogenesis at high millimolar concentrations”.

As to `O=S(O)O` [sulfite], the “selectivity and potency as inhibitor” value in experiment [1] was “only inhibited growth and sulfidogenesis at high millimolar concentrations”.

Consider `O=[Te](=O)(O)O` [tellurate], for which the “selectivity and potency as inhibitor” value in experiment [1] was “very potent and selective inhibitors of sulfate reduction”.

For the molecule `O=[Te](O)O` [tellurite], the “selectivity and potency as inhibitor” value in experiment [1] was “very potent and selective inhibitors of sulfate reduction”.

Take `OP(O)(O)=S` [thiophosphate]: the “selectivity and potency as inhibitor” value in experiment [1] was “weak inhibitors and nonselective; also recorded: very weak, nonselective inhibitors of sulfidogenesis”.

On to `[O]=[W](=[O])([O-])[O-]` [tungstate], for which, in experiment [1], the “selectivity and potency as inhibitor” value is on record as “specific inhibitors of sulfide production”; the “selectivity index (SI = growth IC50/sulfide IC50)” value was found to be 589.

Turning to `[O]=[V]([O-])([O-])[O-]` [vanadate], the “selectivity and potency as inhibitor” value in experiment [1] is on record as “specific inhibitors of sulfide production”.

In the case of arsenate, the “selectivity and potency as inhibitor” value in experiment [1] is “not selective”.

For the molecule methanesulfonate, the “selectivity and potency as inhibitor” value in experiment [1] was “very weak and nonspecific inhibitors”.

For phosphite, the “selectivity and potency as inhibitor” value in experiment [1] is “weak inhibitors and nonselective; also recorded: very weak, nonselective inhibitors of sulfidogenesis”.

Source of the values: US20170198196A1, “METHODS FOR CONTROLLING SOURING IN ENGINEERED SYSTEMS” (The Regents of the University of California, priority 2014, published 2017).
